The source of these data is the kinase profiling compilation of Christmann-Franck et al. (2016).

Holding throughout (experiment): KINOMEscan competition binding
What all share (details): compound 10.0 µM

Experiment [1] has as its system FLT3 (human), P36888 [ITD].
For experiment [2], the system named is FLT3 (human), P36888 [N841I].
Experiment [3] deals with KIT (human), P10721 [V559D/T670I].
For experiment [4], the system named is ABL1 (human), P00519 [Q252H].
Experiment [5] deals with PIK3CA (human), P42336 [H1047Y].
The subject of experiment [6] is ABL1 (human), P00519 [T315I].
Experiment [7] has as its system KIT (human), P10721 [V559D].
The subject of experiment [8] is PIK3CA (human), P42336 [E545K].
Experiment [9] concerns PIK3CA (human), P42336 [C420R].
Experiment [10] deals with ABL1 (human), P00519 [M351T].
The test system of experiment [11] is FLT3 (human), P36888 [K663Q].
The subject of experiment [12] is PIK3CA (human), P42336 [I800L].
The subject of experiment [13] is KIT (human), P10721 [D816V].
Experiment [14] concerns PIK3CA (human), P42336 [E545A].
In experiment [15] the test system is PIK3CA (human), P42336 [Q546K].
The test system of experiment [16] is EIF2AK4 KD2 (human), Q9P2K8 [S808G].
EIF2AK4 KD2 (human), Q9P2K8 [S808G], sequence (Q9P2K8 whole entry S808G, looked up): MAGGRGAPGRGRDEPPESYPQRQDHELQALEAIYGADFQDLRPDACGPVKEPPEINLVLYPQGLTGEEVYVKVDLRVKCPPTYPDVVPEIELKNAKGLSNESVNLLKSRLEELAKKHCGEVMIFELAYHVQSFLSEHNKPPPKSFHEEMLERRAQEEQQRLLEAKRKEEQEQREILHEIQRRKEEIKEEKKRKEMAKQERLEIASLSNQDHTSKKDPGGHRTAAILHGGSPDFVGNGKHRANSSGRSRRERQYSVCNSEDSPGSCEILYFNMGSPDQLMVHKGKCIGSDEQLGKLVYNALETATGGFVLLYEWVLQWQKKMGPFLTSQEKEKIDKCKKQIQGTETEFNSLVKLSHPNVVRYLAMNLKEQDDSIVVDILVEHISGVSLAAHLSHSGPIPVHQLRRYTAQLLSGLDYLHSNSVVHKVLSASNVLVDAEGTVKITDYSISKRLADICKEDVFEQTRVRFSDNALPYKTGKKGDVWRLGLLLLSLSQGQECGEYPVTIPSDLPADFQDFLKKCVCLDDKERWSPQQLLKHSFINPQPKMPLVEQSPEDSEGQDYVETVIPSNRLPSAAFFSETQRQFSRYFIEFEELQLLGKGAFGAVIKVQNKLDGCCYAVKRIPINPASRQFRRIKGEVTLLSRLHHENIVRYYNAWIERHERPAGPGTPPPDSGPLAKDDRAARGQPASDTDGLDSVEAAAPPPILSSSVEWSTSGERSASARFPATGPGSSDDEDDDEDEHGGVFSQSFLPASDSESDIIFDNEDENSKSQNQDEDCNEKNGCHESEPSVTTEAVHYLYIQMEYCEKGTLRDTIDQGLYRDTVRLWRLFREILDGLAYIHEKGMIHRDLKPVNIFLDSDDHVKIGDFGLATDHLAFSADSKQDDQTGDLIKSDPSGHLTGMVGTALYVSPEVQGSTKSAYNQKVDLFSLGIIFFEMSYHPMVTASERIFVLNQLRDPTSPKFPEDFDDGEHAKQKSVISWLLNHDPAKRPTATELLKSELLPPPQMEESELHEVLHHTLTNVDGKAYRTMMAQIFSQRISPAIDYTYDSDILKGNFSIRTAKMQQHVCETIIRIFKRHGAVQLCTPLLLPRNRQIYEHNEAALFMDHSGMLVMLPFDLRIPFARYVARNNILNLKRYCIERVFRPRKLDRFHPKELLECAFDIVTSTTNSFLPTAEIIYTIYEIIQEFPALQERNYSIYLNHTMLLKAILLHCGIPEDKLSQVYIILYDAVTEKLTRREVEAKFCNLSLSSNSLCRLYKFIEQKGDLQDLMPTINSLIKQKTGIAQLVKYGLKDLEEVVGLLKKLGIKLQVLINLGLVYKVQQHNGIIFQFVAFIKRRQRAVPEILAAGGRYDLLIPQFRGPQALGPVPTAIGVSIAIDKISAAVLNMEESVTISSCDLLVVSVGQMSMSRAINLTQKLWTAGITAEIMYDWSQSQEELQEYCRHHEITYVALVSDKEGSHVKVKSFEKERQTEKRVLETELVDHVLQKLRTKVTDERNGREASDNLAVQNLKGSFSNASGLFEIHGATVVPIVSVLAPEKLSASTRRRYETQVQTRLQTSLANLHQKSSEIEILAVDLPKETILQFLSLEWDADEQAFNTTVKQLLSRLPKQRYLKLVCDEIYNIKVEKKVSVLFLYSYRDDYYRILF

PIK3CA (human), P42336 [I800L], sequence (P42336 whole entry I800L, looked up): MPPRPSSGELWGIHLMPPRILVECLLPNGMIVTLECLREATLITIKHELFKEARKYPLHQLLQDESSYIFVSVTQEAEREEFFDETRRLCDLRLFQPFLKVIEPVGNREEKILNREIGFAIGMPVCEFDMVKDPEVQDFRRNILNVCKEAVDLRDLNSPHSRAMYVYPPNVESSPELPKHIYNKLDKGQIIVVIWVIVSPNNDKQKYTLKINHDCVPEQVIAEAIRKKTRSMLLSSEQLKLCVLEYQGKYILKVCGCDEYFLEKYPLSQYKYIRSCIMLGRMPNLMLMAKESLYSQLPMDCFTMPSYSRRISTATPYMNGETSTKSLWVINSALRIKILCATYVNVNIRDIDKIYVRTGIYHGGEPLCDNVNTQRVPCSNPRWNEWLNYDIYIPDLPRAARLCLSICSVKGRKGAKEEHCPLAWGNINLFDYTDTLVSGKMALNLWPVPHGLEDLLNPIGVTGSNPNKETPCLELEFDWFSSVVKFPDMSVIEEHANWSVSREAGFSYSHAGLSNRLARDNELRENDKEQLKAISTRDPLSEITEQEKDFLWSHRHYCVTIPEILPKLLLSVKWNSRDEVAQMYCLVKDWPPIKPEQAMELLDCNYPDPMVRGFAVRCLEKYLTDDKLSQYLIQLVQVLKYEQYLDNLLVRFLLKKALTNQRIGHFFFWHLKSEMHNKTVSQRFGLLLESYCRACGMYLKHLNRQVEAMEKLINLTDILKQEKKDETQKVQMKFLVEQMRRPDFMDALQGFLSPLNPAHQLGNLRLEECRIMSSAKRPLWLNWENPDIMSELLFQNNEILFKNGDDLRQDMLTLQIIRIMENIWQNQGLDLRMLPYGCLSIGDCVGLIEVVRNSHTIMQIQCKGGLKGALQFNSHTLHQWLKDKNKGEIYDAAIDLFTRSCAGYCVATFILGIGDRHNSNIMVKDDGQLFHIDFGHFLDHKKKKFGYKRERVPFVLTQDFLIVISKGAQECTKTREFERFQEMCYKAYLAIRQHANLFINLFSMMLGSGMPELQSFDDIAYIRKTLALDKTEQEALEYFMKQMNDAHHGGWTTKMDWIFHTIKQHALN
KIT (human), P10721 [V559D], sequence (P10721 whole entry V559D, looked up): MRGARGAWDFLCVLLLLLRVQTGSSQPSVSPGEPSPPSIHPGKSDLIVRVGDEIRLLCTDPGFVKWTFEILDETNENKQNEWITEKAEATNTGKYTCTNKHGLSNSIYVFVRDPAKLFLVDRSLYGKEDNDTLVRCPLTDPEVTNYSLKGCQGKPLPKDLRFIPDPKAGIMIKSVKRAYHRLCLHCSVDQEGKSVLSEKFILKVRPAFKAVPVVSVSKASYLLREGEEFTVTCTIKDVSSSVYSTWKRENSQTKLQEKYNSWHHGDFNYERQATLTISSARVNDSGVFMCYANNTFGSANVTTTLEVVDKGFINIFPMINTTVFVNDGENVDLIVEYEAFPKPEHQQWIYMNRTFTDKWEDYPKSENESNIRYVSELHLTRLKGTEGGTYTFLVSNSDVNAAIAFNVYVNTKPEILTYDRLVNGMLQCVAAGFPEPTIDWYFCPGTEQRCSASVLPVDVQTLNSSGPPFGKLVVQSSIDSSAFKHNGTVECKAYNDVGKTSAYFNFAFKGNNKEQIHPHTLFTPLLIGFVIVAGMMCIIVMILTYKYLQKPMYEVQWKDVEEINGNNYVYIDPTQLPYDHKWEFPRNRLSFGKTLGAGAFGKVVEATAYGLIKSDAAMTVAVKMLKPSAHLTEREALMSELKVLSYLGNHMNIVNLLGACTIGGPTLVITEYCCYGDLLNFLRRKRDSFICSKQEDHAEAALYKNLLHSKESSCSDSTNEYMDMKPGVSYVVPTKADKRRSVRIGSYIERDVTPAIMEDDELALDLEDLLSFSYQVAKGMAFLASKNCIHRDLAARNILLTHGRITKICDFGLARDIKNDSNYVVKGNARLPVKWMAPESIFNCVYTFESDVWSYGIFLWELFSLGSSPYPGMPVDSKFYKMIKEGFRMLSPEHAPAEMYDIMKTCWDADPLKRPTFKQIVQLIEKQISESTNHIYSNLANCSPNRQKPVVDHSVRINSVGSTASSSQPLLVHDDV
PIK3CA (human), P42336 [C420R], sequence (P42336 whole entry C420R, looked up): as the sequence (P42336 whole entry I800L, looked up) above, with C420R, L800I counted along it
KIT (human), P10721 [V559D/T670I], sequence (P10721 whole entry V559D/T670I, looked up): as the sequence (P10721 whole entry V559D, looked up) above, with T670I counted along it
PIK3CA (human), P42336 [H1047Y], sequence (P42336 whole entry H1047Y, looked up): as the sequence (P42336 whole entry I800L, looked up) above, with L800I, H1047Y counted along it
PIK3CA (human), P42336 [Q546K], sequence (P42336 whole entry Q546K, looked up): as the sequence (P42336 whole entry I800L, looked up) above, with Q546K, L800I counted along it
KIT (human), P10721 [D816V], sequence (P10721 whole entry D816V, looked up): as the sequence (P10721 whole entry V559D, looked up) above, with D559V, D816V counted along it
PIK3CA (human), P42336 [E545A], sequence (P42336 whole entry E545A, looked up): as the sequence (P42336 whole entry I800L, looked up) above, with E545A, L800I counted along it
PIK3CA (human), P42336 [E545K], sequence (P42336 whole entry E545K, looked up): as the sequence (P42336 whole entry I800L, looked up) above, with E545K, L800I counted along it

`CCN(CCO)CCCOc1ccc2c(Nc3cc(CC(=O)Nc4cccc(F)c4)[nH]n3)ncnc2c1`: the kinase still bound, per cent of control in [1] stood at 2.5%; in [2], 0.15%; in [3] it was 0%; in experiment [4], 32%; in experiment [5] it was 30%; in [6], 0.6%. Further, the kinase still bound, per cent of control in [7] was 0%; in [8], 100%; in experiment [9], 72%; in experiment [10], 39%; in experiment [11], 1%; in experiment [12], 100%. Further, the kinase still bound, per cent of control came to 23% in experiment [13], 31% in experiment [14], 15% in [15] and 62% in experiment [16].
